Key:
Test in all cases: Caliper, Mobility shift assay off-chip
AURKB (human) = AURKB (human) (UniProt Q96GD4)
INSR (human) = INSR (human) (UniProt P06213)
CHEK1 (human) = CHEK1 (human) (UniProt O14757)
TSSK2 (human) = TSSK2 (human) (UniProt Q96PF2)
DYRK1A (human) = DYRK1A (human) (UniProt Q13627)
CSNK1D (human) = CSNK1D (human) (UniProt P48730)
PIM2 (human) = PIM2 (human) (UniProt Q9P1W9)
GSK3B (human) = GSK3B (human) (UniProt P49841)
PRKCE (human) = PRKCE (human) (UniProt Q02156)
CAMK2B (human) = CAMK2B (human) (UniProt Q13554)
PIM1 (human) = PIM1 (human) (UniProt P11309)
PRKCH (human) = PRKCH (human) (UniProt P24723)
ABL2 (human) = ABL2 (human) (UniProt P42684)
IRAK4 (human) = IRAK4 (human) (UniProt Q9NWZ3)
PRKCB1 (human) = PRKCB1 (human) (UniProt P05771)
MARK3 (human) = MARK3 (human) (UniProt P27448)
[1] = system: ABL1 (human), P00519 [Q252H]
ROCK2 (human) = ROCK2 (human) (UniProt O75116)
RAF1 (human) = RAF1 (human) (UniProt P04049)
LCK (human) = LCK (human) (UniProt P06239)
PRKD1 (human) = PRKD1 (human) (UniProt Q15139)
MAPK13 (human) = MAPK13 (human) (UniProt O15264)
CHEK2 (human) = CHEK2 (human) (UniProt O96017)
FGFR4 (human) = FGFR4 (human) (UniProt P22455)
MAPK11 (human) = MAPK11 (human) (UniProt Q15759)
IGF1R (human) = IGF1R (human) (UniProt P08069)
FLT3 (human) = FLT3 (human) (UniProt P36888)
PRKD3 (human) = PRKD3 (human) (UniProt O94806)
[2] = system: FGFR2 (human), P21802 [N549H]
HCK (human) = HCK (human) (UniProt P08631)
KDR (human) = KDR (human) (UniProt P35968)
TSSK1B (human) = TSSK1B (human) (UniProt Q9BXA7)
MAPK14 (human) = MAPK14 (human) (UniProt Q16539)
AURKC (human) = AURKC (human) (UniProt Q9UQB9)

Sequence of CHEK1 (human) (O14757 whole entry, looked up): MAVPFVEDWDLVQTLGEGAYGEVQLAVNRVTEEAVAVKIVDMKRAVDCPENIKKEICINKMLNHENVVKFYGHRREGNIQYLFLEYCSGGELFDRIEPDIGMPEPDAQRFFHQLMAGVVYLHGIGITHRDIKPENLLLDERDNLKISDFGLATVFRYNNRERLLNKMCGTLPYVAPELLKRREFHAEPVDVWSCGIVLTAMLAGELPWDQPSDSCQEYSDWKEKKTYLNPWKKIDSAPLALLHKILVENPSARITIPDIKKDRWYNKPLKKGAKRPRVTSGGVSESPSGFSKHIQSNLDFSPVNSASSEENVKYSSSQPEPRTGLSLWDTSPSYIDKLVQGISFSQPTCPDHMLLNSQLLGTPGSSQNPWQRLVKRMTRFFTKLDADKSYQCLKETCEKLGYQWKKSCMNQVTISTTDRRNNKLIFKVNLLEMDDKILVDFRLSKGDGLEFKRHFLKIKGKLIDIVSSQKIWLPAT
Sequence of CHEK2 (human) (O96017 whole entry, looked up): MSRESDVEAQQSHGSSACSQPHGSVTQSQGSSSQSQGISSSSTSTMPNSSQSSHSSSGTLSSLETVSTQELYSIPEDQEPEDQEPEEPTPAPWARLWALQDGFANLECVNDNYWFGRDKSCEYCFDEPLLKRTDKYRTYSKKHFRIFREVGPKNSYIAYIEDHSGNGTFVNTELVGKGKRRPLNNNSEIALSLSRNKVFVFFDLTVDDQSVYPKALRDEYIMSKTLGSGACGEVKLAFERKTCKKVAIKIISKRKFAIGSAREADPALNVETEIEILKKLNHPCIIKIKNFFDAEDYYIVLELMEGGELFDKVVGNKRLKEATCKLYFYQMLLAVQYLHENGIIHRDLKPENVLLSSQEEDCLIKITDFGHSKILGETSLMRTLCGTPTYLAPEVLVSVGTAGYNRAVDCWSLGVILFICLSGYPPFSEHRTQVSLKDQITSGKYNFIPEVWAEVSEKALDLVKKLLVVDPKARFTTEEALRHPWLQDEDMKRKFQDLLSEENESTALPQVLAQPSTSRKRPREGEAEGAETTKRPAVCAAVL
Sequence of PRKCE (human) (Q02156 whole entry, looked up): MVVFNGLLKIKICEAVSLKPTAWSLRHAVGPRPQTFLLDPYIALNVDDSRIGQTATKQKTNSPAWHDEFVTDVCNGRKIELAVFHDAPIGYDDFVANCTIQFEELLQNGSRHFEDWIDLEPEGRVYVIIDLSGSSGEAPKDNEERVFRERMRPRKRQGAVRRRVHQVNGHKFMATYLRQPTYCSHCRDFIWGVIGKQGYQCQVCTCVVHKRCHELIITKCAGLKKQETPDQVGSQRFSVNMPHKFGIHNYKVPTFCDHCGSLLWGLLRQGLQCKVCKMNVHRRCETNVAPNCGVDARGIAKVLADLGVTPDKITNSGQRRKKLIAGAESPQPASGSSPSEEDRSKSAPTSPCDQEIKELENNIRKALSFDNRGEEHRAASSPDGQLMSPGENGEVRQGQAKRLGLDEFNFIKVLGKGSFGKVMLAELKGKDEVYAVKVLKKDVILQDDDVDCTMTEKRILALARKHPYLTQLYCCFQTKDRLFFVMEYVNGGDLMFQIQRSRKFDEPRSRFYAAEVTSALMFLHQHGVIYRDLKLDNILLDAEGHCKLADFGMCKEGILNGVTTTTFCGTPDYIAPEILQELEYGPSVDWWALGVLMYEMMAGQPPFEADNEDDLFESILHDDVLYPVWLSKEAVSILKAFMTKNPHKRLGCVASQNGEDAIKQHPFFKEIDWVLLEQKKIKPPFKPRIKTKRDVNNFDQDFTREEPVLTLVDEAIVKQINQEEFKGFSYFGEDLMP
Sequence of FGFR4 (human) (P22455 whole entry, looked up): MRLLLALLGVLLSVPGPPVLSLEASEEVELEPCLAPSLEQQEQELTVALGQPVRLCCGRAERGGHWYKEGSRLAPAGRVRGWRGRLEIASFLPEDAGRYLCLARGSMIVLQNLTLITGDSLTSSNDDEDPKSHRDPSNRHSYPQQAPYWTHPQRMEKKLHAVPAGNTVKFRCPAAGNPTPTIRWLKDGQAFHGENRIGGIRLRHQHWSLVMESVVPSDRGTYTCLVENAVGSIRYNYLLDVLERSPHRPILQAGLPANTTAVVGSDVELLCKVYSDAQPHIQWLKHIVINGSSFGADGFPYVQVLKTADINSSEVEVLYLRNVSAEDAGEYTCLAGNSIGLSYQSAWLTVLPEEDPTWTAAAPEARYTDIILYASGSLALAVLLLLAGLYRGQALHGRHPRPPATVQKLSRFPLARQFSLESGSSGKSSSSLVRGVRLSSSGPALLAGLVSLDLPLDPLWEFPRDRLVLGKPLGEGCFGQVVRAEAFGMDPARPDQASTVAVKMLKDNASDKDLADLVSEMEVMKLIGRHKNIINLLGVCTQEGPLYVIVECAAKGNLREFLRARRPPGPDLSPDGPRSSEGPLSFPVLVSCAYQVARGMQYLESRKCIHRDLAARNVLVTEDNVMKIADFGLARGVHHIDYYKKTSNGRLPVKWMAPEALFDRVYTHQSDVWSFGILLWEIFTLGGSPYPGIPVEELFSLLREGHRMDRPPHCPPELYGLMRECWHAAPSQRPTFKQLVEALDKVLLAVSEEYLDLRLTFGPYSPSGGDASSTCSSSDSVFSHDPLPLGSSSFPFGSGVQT
Sequence of IRAK4 (human) (Q9NWZ3 whole entry, looked up): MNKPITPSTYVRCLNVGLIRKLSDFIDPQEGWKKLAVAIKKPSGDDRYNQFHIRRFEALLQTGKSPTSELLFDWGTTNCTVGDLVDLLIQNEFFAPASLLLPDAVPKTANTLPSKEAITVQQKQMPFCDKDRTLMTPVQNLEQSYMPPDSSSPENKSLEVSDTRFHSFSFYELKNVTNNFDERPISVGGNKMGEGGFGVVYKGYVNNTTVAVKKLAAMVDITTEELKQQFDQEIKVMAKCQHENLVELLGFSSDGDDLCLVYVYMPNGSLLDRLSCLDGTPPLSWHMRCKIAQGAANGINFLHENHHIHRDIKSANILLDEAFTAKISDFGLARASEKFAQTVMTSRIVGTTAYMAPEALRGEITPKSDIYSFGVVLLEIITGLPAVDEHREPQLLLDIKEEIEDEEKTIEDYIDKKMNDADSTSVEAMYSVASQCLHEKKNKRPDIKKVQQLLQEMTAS
Sequence of ABL2 (human) (P42684 whole entry, looked up): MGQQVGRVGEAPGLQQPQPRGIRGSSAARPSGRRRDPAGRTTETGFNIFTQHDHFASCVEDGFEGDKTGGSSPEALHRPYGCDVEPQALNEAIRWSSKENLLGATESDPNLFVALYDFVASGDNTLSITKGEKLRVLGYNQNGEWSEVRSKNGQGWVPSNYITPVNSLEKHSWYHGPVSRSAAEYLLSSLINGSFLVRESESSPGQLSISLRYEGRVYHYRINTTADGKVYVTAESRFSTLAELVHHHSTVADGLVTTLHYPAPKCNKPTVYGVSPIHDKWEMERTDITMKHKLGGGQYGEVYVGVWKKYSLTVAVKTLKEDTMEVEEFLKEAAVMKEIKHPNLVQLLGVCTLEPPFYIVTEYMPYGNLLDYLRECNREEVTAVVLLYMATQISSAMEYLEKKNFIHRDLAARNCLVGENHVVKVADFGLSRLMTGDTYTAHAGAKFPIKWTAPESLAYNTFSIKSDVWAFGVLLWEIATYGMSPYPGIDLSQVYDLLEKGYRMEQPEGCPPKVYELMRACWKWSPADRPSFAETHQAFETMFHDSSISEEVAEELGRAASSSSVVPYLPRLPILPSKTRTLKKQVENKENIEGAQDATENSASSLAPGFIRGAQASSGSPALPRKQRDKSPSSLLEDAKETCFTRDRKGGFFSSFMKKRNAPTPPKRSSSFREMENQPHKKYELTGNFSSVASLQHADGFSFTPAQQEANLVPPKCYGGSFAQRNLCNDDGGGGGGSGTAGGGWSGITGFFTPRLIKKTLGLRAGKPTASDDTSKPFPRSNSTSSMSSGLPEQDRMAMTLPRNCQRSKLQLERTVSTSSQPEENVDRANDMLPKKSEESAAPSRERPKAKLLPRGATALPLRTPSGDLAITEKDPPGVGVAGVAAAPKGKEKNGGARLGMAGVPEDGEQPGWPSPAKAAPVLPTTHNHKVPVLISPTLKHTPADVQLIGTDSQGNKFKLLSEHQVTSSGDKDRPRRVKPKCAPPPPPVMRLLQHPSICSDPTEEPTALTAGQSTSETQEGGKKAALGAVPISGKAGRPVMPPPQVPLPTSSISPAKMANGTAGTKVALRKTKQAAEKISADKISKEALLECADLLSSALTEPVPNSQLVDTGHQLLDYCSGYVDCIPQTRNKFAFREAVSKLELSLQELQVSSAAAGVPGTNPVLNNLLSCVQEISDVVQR
Sequence of TSSK1B (human) (Q9BXA7 whole entry, looked up): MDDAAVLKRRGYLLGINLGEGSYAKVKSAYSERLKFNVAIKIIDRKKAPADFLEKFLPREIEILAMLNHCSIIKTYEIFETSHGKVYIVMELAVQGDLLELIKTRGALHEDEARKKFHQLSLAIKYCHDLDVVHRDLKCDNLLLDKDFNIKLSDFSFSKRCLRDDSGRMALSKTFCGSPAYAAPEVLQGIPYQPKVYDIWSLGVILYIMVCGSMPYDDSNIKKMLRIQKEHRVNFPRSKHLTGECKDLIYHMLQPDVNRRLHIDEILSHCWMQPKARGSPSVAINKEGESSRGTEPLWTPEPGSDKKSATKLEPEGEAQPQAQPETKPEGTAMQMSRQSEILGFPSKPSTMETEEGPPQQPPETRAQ
Sequence of MAPK13 (human) (O15264 whole entry, looked up): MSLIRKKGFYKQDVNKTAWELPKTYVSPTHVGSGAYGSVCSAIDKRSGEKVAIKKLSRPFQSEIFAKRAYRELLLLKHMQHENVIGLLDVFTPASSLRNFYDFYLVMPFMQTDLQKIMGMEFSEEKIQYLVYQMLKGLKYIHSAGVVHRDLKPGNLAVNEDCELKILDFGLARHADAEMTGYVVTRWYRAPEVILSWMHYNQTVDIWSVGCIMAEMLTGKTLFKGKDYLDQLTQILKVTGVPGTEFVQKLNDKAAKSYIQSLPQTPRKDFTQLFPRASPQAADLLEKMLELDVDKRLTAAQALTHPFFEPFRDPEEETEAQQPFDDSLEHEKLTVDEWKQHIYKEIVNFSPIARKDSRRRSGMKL

Q: What does the source list for `Cn1cc(-c2cnc3ccc4ccc(CS(=O)(=O)NC5CCCCC5)cc4c(=O)c3c2)cn1`?
A: inhibition (AURKB (human); compound 0.01 µM): -0.1%; inhibition (AURKB (human); compound 0.1 µM): 11.7%; inhibition (INSR (human); compound 0.01 µM): 3.1%; inhibition (INSR (human); compound 0.1 µM): 3.1%; inhibition (CHEK1 (human); compound 0.01 µM): 4.3%; inhibition (CHEK1 (human); compound 0.1 µM): 1.3%; inhibition (TSSK2 (human); compound 0.01 µM): 2.5%; inhibition (TSSK2 (human); compound 0.1 µM): 0.7%; inhibition (DYRK1A (human); compound 0.01 µM): -1%; inhibition (DYRK1A (human); compound 0.1 µM): 6.4%; inhibition (CSNK1D (human); compound 0.01 µM): -3.5%; inhibition (CSNK1D (human); compound 0.1 µM): 8.9%; inhibition (PIM2 (human); compound 0.01 µM): -11%; inhibition (PIM2 (human); compound 0.1 µM): 4.3%; inhibition (GSK3B (human); compound 0.01 µM): 4.9%; inhibition (GSK3B (human); compound 0.1 µM): 1.3%; inhibition (PRKCE (human); compound 0.01 µM): -0.5%; inhibition (PRKCE (human); compound 0.1 µM): 3.8%; inhibition (CAMK2B (human); compound 0.01 µM): 4.4%; inhibition (CAMK2B (human); compound 0.1 µM): -5.2%; inhibition (PIM1 (human); compound 0.01 µM): -11.4%; inhibition (PIM1 (human); compound 0.1 µM): -4.6%; inhibition (PRKCH (human); compound 0.01 µM): -2.5%; inhibition (PRKCH (human); compound 0.1 µM): -14.9%; inhibition (ABL2 (human); compound 0.01 µM): -2.4%; inhibition (ABL2 (human); compound 0.1 µM): -4.3%; inhibition (IRAK4 (human); compound 0.01 µM): -10%; inhibition (IRAK4 (human); compound 0.1 µM): 6.7%; inhibition (PRKCB1 (human); compound 0.01 µM): -6%; inhibition (PRKCB1 (human); compound 0.1 µM): 1.4%; inhibition (MARK3 (human); compound 0.01 µM): -3.5%; inhibition (MARK3 (human); compound 0.1 µM): -0.6%; inhibition ([1]; compound 0.01 µM): 2.5%; inhibition ([1]; compound 0.1 µM): 7.6%; inhibition (ROCK2 (human); compound 0.01 µM): 6.2%; inhibition (ROCK2 (human); compound 0.1 µM): 21.2%; inhibition (RAF1 (human); compound 0.01 µM): 2.2%; inhibition (RAF1 (human); compound 0.1 µM): 4.5%; inhibition (LCK (human); compound 0.01 µM): 8.2%; inhibition (LCK (human); compound 0.1 µM): 7.3%; inhibition (PRKD1 (human); compound 0.01 µM): -2.4%; inhibition (PRKD1 (human); compound 0.1 µM): 11.3%; inhibition (MAPK13 (human); compound 0.01 µM): -5.2%; inhibition (MAPK13 (human); compound 0.1 µM): -3%; inhibition (CHEK2 (human); compound 0.01 µM): -2.6%; inhibition (CHEK2 (human); compound 0.1 µM): -7.4%; inhibition (FGFR4 (human); compound 0.01 µM): -3%; inhibition (FGFR4 (human); compound 0.1 µM): 9.7%; inhibition (MAPK11 (human); compound 0.01 µM): -7.7%; inhibition (MAPK11 (human); compound 0.1 µM): 4.9%; inhibition (IGF1R (human); compound 0.01 µM): 3.9%; inhibition (IGF1R (human); compound 0.1 µM): -7.9%; inhibition (FLT3 (human); compound 0.01 µM): -1%; inhibition (FLT3 (human); compound 0.1 µM): -2.3%; inhibition (PRKD3 (human); compound 0.01 µM): -2.4%; inhibition (PRKD3 (human); compound 0.1 µM): 10.4%; inhibition ([2]; compound 0.01 µM): -3.9%; inhibition ([2]; compound 0.1 µM): 12.4%; inhibition (HCK (human); compound 0.01 µM): 3.5%; inhibition (HCK (human); compound 0.1 µM): 7.6%; inhibition (KDR (human); compound 0.01 µM): 3.5%; inhibition (KDR (human); compound 0.1 µM): -10%; inhibition (TSSK1B (human); compound 0.01 µM): -3.1%; inhibition (TSSK1B (human); compound 0.1 µM): 1.9%; inhibition (MAPK14 (human); compound 0.01 µM): -1.7%; inhibition (MAPK14 (human); compound 0.1 µM): -2.6%; inhibition (AURKC (human); compound 0.01 µM): -1.6%; inhibition (AURKC (human); compound 0.1 µM): 15.4%

From the kinase profiling compilation of Christmann-Franck et al. (2016)
